Experimental data published in patent US10590143B2, “Herbicidally active (alkynyl-phenyl)-substituted cyclic dione compounds and derivatives thereof” (Syngenta Limited, priority 2013, dated 2020).

How the values were obtained:
Assay in all cases: Biological Example 2 glasshouse assay for herbicidal activity
Type in all cases: in vivo
[1] = tested on: Alopecurus myosuroides (ALOMY); conditions: post-emergence, 360 h, 14 or 15 DAA, 0.2% v/v X-77, read-out: percentage phytotoxicity ALOMY
Method: (§1) Seeds of a variety of monocotyledonous and dicotyledonous test plants are sown in standard soil in pots. The plants are cultivated for one day (for pre-emergence) or for about 12 days (range=10-13 days) (for post-emergence) under controlled conditions in a glasshouse (warm climate species at 24/18° C., cool climate species at 20/16° C., both at day/night; 16 hours light; 65% humidity).
(§2) An “instant formulation”, known as the “IF50”, containing 50 g/litre (i.e. 5% w/v) of the “technical” (i.e. unformulated) active ingredient is prepared by dissolving the active ingredient in a mixture of organic solvents and emulsifier, details of which are provided in the Table below. This IF50 is then mixed with a small, variable amount of acetone to aid dissolution, before addition of a 0.2% v/v aqueous solution of the adjuvant X-77 (which is a mixture of alkyl aryl polyoxyethylene glycols and free fatty acids in isopropanol, CAS Registry number 11097-66-8), as the aqueous diluent, to form an aqueous spray solution which contains a predetermined concentration of the active ingredient (which varies depending on the application rate of the active ingredient to the plants) and 0.2% v/v of the adjuvant X-77. This aqueous spray solution is then sprayed onto the plants, after one day's cultivation (for pre-emergence) or after about 12 days' cultivation (for post-emergence).
(§3) The test plants are then grown on, in a glasshouse (greenhouse) under controlled conditions (at either 24/18° C. or 20/16° C. (day/night) as mentioned above; 16 hours light; 65% humidity) and are watered twice daily. Either 14 or 15 days after application of the herbicide (14 or 15 DAA) (for post-emergence), or 20 days after application of the herbicide (20 DAA) (for pre-emergence), the test plants are evaluated visually, and an assessed percentage phytotoxicity score is given for each herbicidal application on each plant species (where 100%=total damage to plant; 0%=no damage to plant).
(§4) Some of the typical test plants are as follows: • Cool climate crop plants: Triticum aestivum (TRZAW, winter wheat), Brassica napus (BRSNN, rape, also called oilseed rape or rapeseed), Beta vulgaris (BEAVA, sugarbeet). • Warm climate crop plants: Glycine max (GLXMA, soybean). • Cool climate (“cool season”) grassy monocotyledonous weeds: Alopecurus myosuroides (ALOMY), Avena fatua (AVEFA), Lolium perenne (LOLPE), Poa annua (POAAN), Bromus tectorum (BROTE). • Warm climate (“warm season”) grassy monocotyledonous weeds: Setaria faberi (SETFA), SORVU (Sorghum bicolor (L.) Moench ssp. Bicolor, or Sorghum vulgare Pers.), Digitaria sanguinalis (DIGSA), Echinochloa crus-galli (ECHCG), Brachiaria plantaginea (BRAPL); Zea mays (ZEAMX, corn, maize, e.g. volunteer corn).

Avena fatua (AVEFA) = conditions: post-emergence, 360 h, 14 or 15 DAA, 0.2% v/v X-77, read-out: percentage phytotoxicity AVEFA
Method: as §1, §2, §3, §4

[2] = tested on: Beta vulgaris (BEAVA, sugarbeet); conditions: post-emergence, 360 h, 14 or 15 DAA, 0.2% v/v X-77, read-out: percentage phytotoxicity BEAVA
Method: as §1, §2, §3, §4

[3] = tested on: Brassica napus (BRSNN, rape); conditions: post-emergence, 14 or 15 DAA, 0.2% v/v X-77
Method: as §1, §2, §3, §4

[4] = tested on: Digitaria sanguinalis (DIGSA); conditions: post-emergence, 360 h, 14 or 15 DAA, 0.2% v/v X-77, read-out: percentage phytotoxicity DIGSA
Method: as §1, §2, §3, §4

[5] = tested on: Echinochloa crus-galli (ECHCG); conditions: post-emergence, 14 or 15 DAA; for percentage phytotoxicity ECHCG: 0.2% v/v X-77
Method: as §1, §2, §3, §4

[6] = tested on: Glycine max (GLXMA, soybean); conditions: post-emergence, 360 h, 14 or 15 DAA, 0.2% v/v X-77, read-out: percentage phytotoxicity GLXMA
Method: as §1, §2, §3, §4

Lolium perenne (LOLPE) = conditions: post-emergence, 14 or 15 DAA
Method: as §1, §2, §3, §4

[7] = tested on: SORVU (Sorghum bicolor (L.) Moench ssp. Bicolor, or Sorghum vulgare Pers.); conditions: post-emergence, 360 h, 14 or 15 DAA, 0.2% v/v X-77, read-out: percentage phytotoxicity SORVU
Method: as §1, §2, §3, §4

Setaria faberi (SETFA) = conditions: post-emergence, 360 h, 14 or 15 DAA, 0.2% v/v X-77, read-out: percentage phytotoxicity SETFA
Method: as §1, §2, §3, §4

[8] = tested on: Triticum aestivum (TRZAW, winter wheat); conditions: post-emergence, 360 h, 14 or 15 DAA, 0.2% v/v X-77, read-out: percentage phytotoxicity TRZAW
Method: as §1, §2, §3, §4

[9] = tested on: Zea mays (ZEAMX, corn, maize, e.g. volunteer corn); conditions: post-emergence, 14 or 15 DAA
Method: as §1, §2, §3, §4

[10] = tested on: Brachiaria plantaginea (BRAPL); conditions: Urochloa plantaginea, post-emergence, 360 h, 14 or 15 DAA, 0.2% v/v X-77, read-out: percentage phytotoxicity BRAPL
Method: as §1, §2, §3, §4

[11] = Brassica napus, 360 h, 250 g/ha, read-out: percentage phytotoxicity BRSNN
[12] = Echinochloa crus-galli, 360 h, 250 g/ha, 0.2% v/v X-77, read-out: percentage phytotoxicity ECHCG
[13] = Lolium perenne, 360 h, 250 g/ha, 0.2% v/v X-77, read-out: percentage phytotoxicity LOLPE
[14] = Zea mays, 360 h, 250 g/ha, 0.2% v/v X-77, read-out: percentage phytotoxicity ZEAMX
[15] = Brassica napus, 360 h, read-out: percentage phytotoxicity BRSNN
[16] = Echinochloa crus-galli, 360 h, 30 g/ha, 0.2% v/v X-77, read-out: percentage phytotoxicity ECHCG
[17] = Lolium perenne, 360 h, 0.2% v/v X-77, read-out: percentage phytotoxicity LOLPE
[18] = Zea mays, 360 h, 0.2% v/v X-77, read-out: percentage phytotoxicity ZEAMX

SMILES	pest or weed control at 250 g/ha [1]	pest or weed control at 250 g/ha (Avena fatua (AVEFA))	plant injury at 250 g/ha [2]	plant injury at 250 g/ha [3, 11]	pest or weed control at 250 g/ha [4]	pest or weed control at 250 g/ha [5, 12]	plant injury at 250 g/ha [6]	pest or weed control at 250 g/ha (Lolium perenne (LOLPE); [13])	pest or weed control at 250 g/ha [7]	pest or weed control at 250 g/ha (Setaria faberi (SETFA))	plant injury at 250 g/ha [8]	pest or weed control at 250 g/ha [9, 14]	pest or weed control at 30 g/ha [1]	pest or weed control at 30 g/ha (Avena fatua (AVEFA))	pest or weed control at 30 g/ha [10]	pest or weed control at 250 g/ha [10]	plant injury at 30 g/ha [3, 15]	pest or weed control at 30 g/ha [4]	pest or weed control at 30 g/ha [5, 16]	pest or weed control at 30 g/ha (Lolium perenne (LOLPE); [17])	other results
CC#Cc1cc(F)c(C2C(=O)C3CCC(C)(C2=O)C3(C)C)c(OC)c1 (stereo not shown) [Compound A2]	60%	0%	0%	10%	80%	90%	20%	0%	90%	80%	0%	90%									
CC#Cc1cc(F)c(C2C(=O)C3CCC(C3)C2=O)c(OC)c1 (stereo not shown) [Compound A1, 3-(2-Fluoro-6-methoxy-4-prop-1-ynyl-phenyl)-bicyclo[3.2.1]octane-2,4-dione]	100%	100%	30%	80%	100%	100%		100%	100%	100%	100%	100%	80%	90%	90%	100%	40%	100%	100%	90%	percentage phytotoxicity BRSNN ([3]; 250 g/ha): 80%; percentage phytotoxicity ECHCG ([5]; 30 g/ha): 100%; percentage phytotoxicity ECHCG ([5]; 250 g/ha): 100%; percentage phytotoxicity LOLPE (Lolium perenne (LOLPE); 250 g/ha, 0.2% v/v X-77): 100%; pest or weed control at 30 g/ha [7]: 90%; pest or weed control at 30 g/ha (Setaria faberi (SETFA)): 90%; plant injury at 30 g/ha [8]: 70%; pest or weed control at 30 g/ha [9, 18]: 90%; percentage phytotoxicity ZEAMX ([9]; 250 g/ha, 0.2% v/v X-77): 100%
CC#Cc1cc(F)c(C2C(=O)C3CCC(C3)C2=O)c(OC(F)F)c1 (stereo not shown) [Compound A7]	70%	40%	10%	60%	100%	100%	20%	40%	100%	90%	70%	100%	30%	10%	90%	100%	30%	90%	90%	0%	pest or weed control at 125 g/ha ([1]; 125 g/ha): 70%; pest or weed control at 125 g/ha (Avena fatua (AVEFA); 125 g/ha): 30%; plant injury at 30 g/ha ([2]; 30 g/ha): 0%; plant injury at 125 g/ha ([2]; 125 g/ha): 0%; pest or weed control at 125 g/ha ([10]; 125 g/ha): 100%; plant injury at 125 g/ha ([3]; Brassica napus, 360 h, 125 g/ha, read-out: percentage phytotoxicity BRSNN): 50%; pest or weed control at 125 g/ha ([4]; 125 g/ha): 100%; pest or weed control at 125 g/ha ([5]; Echinochloa crus-galli, 360 h, 125 g/ha, 0.2% v/v X-77, read-out: percentage phytotoxicity ECHCG): 100%; plant injury at 30 g/ha ([6]; 30 g/ha): 20%; plant injury at 125 g/ha ([6]; 125 g/ha): 20%; pest or weed control at 125 g/ha (Lolium perenne (LOLPE); Lolium perenne, 360 h, 125 g/ha, 0.2% v/v X-77, read-out: percentage phytotoxicity LOLPE): 30%; pest or weed control at 30 g/ha [7]: 50%; pest or weed control at 125 g/ha ([7]; 125 g/ha): 90%; pest or weed control at 30 g/ha (Setaria faberi (SETFA)): 60%; pest or weed control at 125 g/ha (Setaria faberi (SETFA); 125 g/ha): 90%; plant injury at 30 g/ha [8]: 30%; plant injury at 125 g/ha ([8]; 125 g/ha): 70%; pest or weed control at 30 g/ha [9, 18]: 80%; pest or weed control at 125 g/ha ([9]; Zea mays, 360 h, 125 g/ha, 0.2% v/v X-77, read-out: percentage phytotoxicity ZEAMX): 90%
